Source: the NIST ThermoML archive (doi:10.1016/j.jct.2012.09.031)
Values joined by “and” are separate entries in the source; they are usually repeats but may differ in a detail not shown here. Equal entries are not always repeated.

What was measured:
[1] = molar enthalpy of vaporization or sublimation; conditions: 298.15 K; Crystal; Static calorimetry
[2] = Crystal, Calculated from knudsen effusion weight loss

O=[N+]([O-])c1ccccc1I [1-iodo-2-nitrobenzene]
Conditions	molar enthalpy [kcal/mol]
[1]	21.5

[2]
Conditions	vapor or sublimation pressure
287.15 K	8.2e-05 kPa and 8.5e-05 kPa
289.14 K	0.000107 kPa and 0.000103 kPa
291.13 K	0.000139 kPa and 0.000141 kPa and 0.000135 kPa
293.14 K	0.000175 kPa and 0.000178 kPa and 0.000184 kPa
295.15 K	0.000224 kPa and 0.000226 kPa and 0.00023 kPa
297.14 K	0.000283 kPa and 0.000289 kPa and 0.000288 kPa
299.14 K	0.000373 kPa and 0.000375 kPa and 0.000374 kPa
301.14 K	0.000458 kPa and 0.000466 kPa and 0.000479 kPa
303.13 K	0.000609 kPa and 0.000616 kPa
305.14 K	0.000767 kPa and 0.000768 kPa and 0.000777 kPa
307.14 K	0.000974 kPa and 0.000975 kPa and 0.000998 kPa

O=[N+]([O-])c1cccc(I)c1 [1-iodo-3-nitrobenzene]
Conditions	molar enthalpy [kcal/mol]
[1]	21.4

[2]
Conditions	vapor or sublimation pressure
287.14 K	0.000148 kPa and 0.000145 kPa
289.15 K	0.000187 kPa and 0.000191 kPa
291.13 K	0.000238 kPa
293.13 K	0.000309 kPa and 0.000314 kPa
295.15 K	0.000392 kPa and 0.0004 kPa
297.14 K	0.000508 kPa and 0.000506 kPa
299.14 K	0.000641 kPa and 0.000643 kPa
301.14 K	0.000812 kPa
303.13 K	0.001033 kPa and 0.001074 kPa

O=[N+]([O-])c1ccc(I)cc1 [1-iodo-4-nitrobenzene]
Conditions	molar enthalpy [kcal/mol]
[1]	23.5

[2]
Conditions	vapor or sublimation pressure
311.18 K	9.7e-05 kPa and 9.4e-05 kPa and 9.3e-05 kPa
313.17 K	0.000121 kPa and 0.000114 kPa and 0.000118 kPa
315.11 K	0.000151 kPa and 0.00015 kPa and 0.000152 kPa
317.18 K	0.000179 kPa and 0.000193 kPa
319.13 K	0.00023 kPa and 0.000226 kPa
321.1 K	0.000282 kPa and 0.000277 kPa and 0.000283 kPa
323.18 K	0.000355 kPa and 0.000354 kPa and 0.000359 kPa
325.18 K	0.000451 kPa and 0.000436 kPa and 0.000455 kPa
327.12 K	0.00055 kPa and 0.000546 kPa and 0.000552 kPa
329.18 K	0.000672 kPa and 0.000673 kPa
331.18 K	0.000856 kPa and 0.00083 kPa and 0.000857 kPa
333.11 K	0.001045 kPa and 0.001036 kPa and 0.001018 kPa
